Measured values reported in patent US12245591B2, “Templated antimicrobial microgels and methods of making and using the same” (THE BOARD OF TRUSTEES OF THE UNIVERSITY OF ARKANSAS, priority 2019, dated 2025).
Converted amounts (≈) assume the structure as drawn. Where two headings read alike, the source gives them in different places.

What was measured:
S. aureus (ATCC 25923) = experiment: Minimal inhibitory concentration (MIC), broth microdilution, S. aureus; type: cell-based; conditions: for MIC: Staphylococcus aureus
Experimental: (§1) The minimal inhibitory concentration (MIC) and minimal bactericidal concentration (MBC) by broth microdilution assays in 96-well plates to determine antimicrobial activity of selected agents against Gram-positive and Gram-negative bacteria
(§2) Antimicrobial materials: In a typical experiment, the synthesized polymers were prepared for antimicrobial assays as described for the kinetic assays in Example 4(A), except as indicated in Tables 7-10 and 12.
(§3) Mueller Hinton broth (MHB): A sterile broth is prepared with 4.50 g Mueller Hinton base (Hardy Diagnostics) in 200 mL deionized water. The broth is cooled to room temperature after being autoclaved and stored at 4° C. until use.
(§4) Propagation of bacterial cells: Typically, 500 μL aliquots of S. aureus (ATCC® 25923™) or E. coli (BL21 DE3) cells are used to inoculate 5 mL of Mueller Hinton broth. The inoculum is shaken at 37° C. and 240 rpm for 6 h. Then, 500 μL aliquots are transferred to individual vessels, flash-frozen in liquid nitrogen, and stored as pre-starter cultures at −20° C. until use.
(§5) Growth of bacterial cells: A 500 μL pre-starter culture is used to inoculate 5 mL of Mueller Hinton broth at 37° C. After 5 h of shaking at 240 rpm, a 500 μL of the inoculum is diluted to 20 mL with sterile MHB, followed by three successive 1:10 dilutions of 1000 μL of the resulting solutions into 10 mL MHB. Subsequently, 50 μL of the most dilute cell suspension is spread on a Mueller-Hinton agar plate, and incubated at 37° C. After 24 h, selected colonies are re-suspended in 4 mL of Mueller-Hinton broth and diluted until their OD625 value matched that of a 0.5 McFarland standard at 37° C. to account for a cell concentration of 1×10^8 CFU/mL. Typically, a 50 μL aliquot of the cell suspension is diluted into 10 mL of Mueller-Hinton broth to obtain a stock solution of S. aureus cells at a concentration of 5×10^5 CFU/mL. Typically, two separate inoculums are prepared immediately prior to use.
(§6) Preparation of broth microdilution assays and data recording: Following standard procedures for conducting broth microdilution assays, 100 μL aliquots of Mueller-Hinton broth are added to each well. Subsequently, a 100 μL aliquot of the sterile antimicrobial agent solution is added in the first column of the plate and then diluted in a serial manner by subsequent transfers of 100 μL aliquots over the first 10 columns. […] Typically, the absorbance in each well is then monitored at 595 nm and 37° C. over a 16 h period in 2 h intervals.
(§7) Data analysis: The obtained absorbance data are plotted against time to determine the steady state point of cell growth. The change of absorbance at this time for wells with and without antimicrobial agent is then plotted against the concentration of the antimicrobial agent. […]

E. coli (BL21 DE3) = experiment: Minimal inhibitory concentration (MIC), broth microdilution, E. coli; type: cell-based; conditions: for MIC: Escherichia coli, read-out: MIC E. coli
Experimental: as §1, §2, §3, §4, §5, §6, §7

[1] = Coordination to binuclear complex Cu2bpdpo, isothermal titration calorimetry; type: binding; conditions: coordination to the metal complex; pH 10.50, 10° C.
Description: The coordination of galactonoamidine 1 to binuclear complexes was already evaluated in part and included Cu2bpdpo (5), a nonpolymerizable analogue of 3 (FIG. 15).

[2] = Stability of galactonoamidine against hydrolysis under buffer and temperature conditions (HPLC, NMR); type: physicochemical
Experimental: The instrumentation, reagents, and materials for this study were recently described. [Sharma, B. et al. Biomacromolecules 2018, 19, 1164-1174; Sharma, B. et al. […]. 2018, 8, 7710-7718] The computational analysis was performed with PQSmol as reported. [Sharma Biomacromolecules 2018; […]. et al. Dalton Trans. 2016, 45, 15203-15210; Becke, A. D. J. Chem. Phys. 1993, 98, 5648-5652; Lee, C. et al. Phys. Rev. B: Condens. Matter Mater. Phys. 1988, 37, 785-789; PQSmol, Version 4.1; Parallel Quantum Solutions: […]. et al. J. Chem. […] [[…]. et al. Bioorg. Med. Chem. 2016, 24, 3371-3377] Glyconoamidines are prone to nucleophilic attack at the anomeric C atom and subsequent hydrolysis in alkaline solution. Various glyconoamidines have been previously synthesized. [Bleriot, Y. et al. Bioorg. Med. Chem. Lett. 1995, 5, 2655-60; Bleriot, Y. et al. Tetrahedron Lett. 1994, 35, 1867-70; Heck, M.-P. et al. J. Am. Chem. Soc. 2004, 126, 1971-1979; […]. Res. 1996, 29, 340-347] We evaluated the hydrolysis of galactonoamidine 1 under various buffer and temperature conditions to ensure its stability under polymerization conditions. […] The stability of 1 was also observed at 0 and 10° C. over a 3 h time period in 5 mM CAPS buffer solution at pH 10.50. Buffer solutions with similar molarity at lower pH values behave likewise (FIG. 13).

[3] = type: biochemical; conditions: for Km / kcat: substrate β-9
Experimental: 2.8.4. Catalytic Glycoside Hydrolysis. […]
Substrate Stock Solution. […] As the glycoside precipitates in this concentration from aqueous solutions at ambient temperature, the resulting solution was kept above 50° C. until use.
Catalyst Stock Solutions. The microgel dispersions were used as described above. […]
Kinetic Assay. In a typical experiment, 20 μL of an activated microgel dispersion were added to aliquots of the glycoside stock solution (0-100 μL) and corresponding amounts of buffer solution, keeping the nominal volume of the resulting solutions at 200 μL. […] The product formation was read in 20 min intervals after orbital shaking of the solutions over 5 s each. All experiments were performed in duplicate or triplicate.
Data Analysis. The collected fluorescence intensity was plotted over time, and a linear fit applied to the data collected between 140 and 480 min. The calculated rates of the reaction were then corrected by the corresponding apparent extinction coefficient and catalyst amount, averaged from two independent experiments, and plotted over the molar substrate concentration. Nonlinear regression of the resulting hyperbolic data yielded the rate constant kcat and the apparent substrate affinity KM. The rate constant of the uncatalyzed reaction knon was determined by applying a linear fit to the corrected rates of the collected data obtained in absence of catalyst. Data obtained in the presence of metal-ion free control polymer ^LPgal and from control polymer ^Cu2LPEG were treated likewise to estimate their catalytic efficiency.
The turbidity of the aqueous microgel dispersions under consideration here increases visibly to the naked eye with the crosslinking content from 5 to 80 mol % EGDMA. As a consequence, the apparent extinction coefficient (εapp) was determined for each microgel under the respective assay conditions prior to analysis of related spectroscopic data. […] (FIG. 9). [Chen, R. F Anal. Lett. 1968, 1(7), 423-428] […] [Striegler 2010] and used here to establish catalytic activity of the newly synthesized crosslinked microgels. The assay was developed in a 96-well plate format to allow fast catalyst screening under various reaction conditions, including lower pH values in future efforts.
Likewise, a linear correlation between the concentration of the low molecular weight complex Cu2bpdpo (2) and the product formation of the glycoside hydrolysis was observed when the catalyst was used in concentrations up to 12 μM under assay conditions. With a fast screening assay on hand, the hydrolysis of glycoside 6 was evaluated with two different microgel catalysts at 60% crosslinking content: a polymer […] prepared in the presence of galactose and its metal-free, nonactivated analogue ^LPgal. Control experiments were conducted using a microgel ^Cu2LPEG that has the same crosslinking content as those polymers above, but is prepared in the presence of ethylene glycol instead of galactose. Additionally, hydrolysis of 6 was followed in the presence of low molecular weight complex Cu2bpdpo (2) and in the absence of catalyst in the buffer solution itself. The resulting hyperbolic data for the glycoside hydrolyses were analyzed by applying the Michaelis-Menten model to obtain the rate of the reaction (kcat), the substrate affinity (KM), and the rate of the uncatalyzed reaction (knon) in aqueous buffer solution. The catalytic proficiency (kcat/(KM×knon), catalytic efficiency (kcat/KM), and acceleration of the reaction over the uncatalyzed background reaction (kcat/knon) were then calculated therefrom as described (Table 1, FIG. 11).
Activated microgel catalysts were prepared as described. [Sharma Biomacromolecules 2018] Typical stock solutions were as follows: Cu2bpdpo […] 2 mM, β-galactosidase as described [Sharma ACS Catal. 2018], 4-methylumbelliferyl α-D-galactopyranoside (α-9) 8-9 mM, and 4-methylumbelliferyl […] 3-4 mM. […]

B21 DE3 E. coli cells = experiment: Growth of E. coli cells in petridish assays with Müller-Hinton/agar media; type: cell-based; conditions: 37° C., 12 h
Experimental: Sterile Müller-Hinton/Agar (MH) media. 4.54 g Müller-Hinton media and 5.07 g agar were dissolved in 200 mL deionized water. The media were autoclaved and stored at 4° C. until use.
E. coli cell culture. A 100 μL aliquot of B21 DE3 E. coli cells, purchased from New England Biolabs, were added to 1 mL of sterile Luria-Bertani broth; the culture was incubated for 2 hours at 37° C. Then, a 100 μL aliquot of this culture was diluted by serial dilution 200,000-fold with sterile LB (Miller's) media yielding 10 mL of a stock solution of the cell culture.
Stock solution of low molecular weight complex Cu2bpdpo (catalyst 1). 5.28 mg of Cu2bpdpo were dissolved in 5 mL of 50 mM HEPES buffer at pH 7.00; a 1000 μl aliquot of the resulting solution was further diluted into 10 mL yielding a 160.3 μM stock solution of Cu2bpdpo.
Stock solution of Hen Egg-white lysozyme (catalyst 2). 11.53 mg of lyophilized lysozyme purchased from AMRESCO were dissolved in 5 mL of 50 mM HEPES buffer at pH 7.00 and used as a 161.1 μM stock solution.
Stock solutions of microgels (catalysts 3-5). All microgel stock solutions were treated as described above, but only diluted 1:5 during activation and then sterilized prior to use for these experiments. The stock solution for ^Cu2LPgal (40%) is 112.3 μM, for ^Cu2LPgal (60%) 145.6 μM and for ^Cu2LP1 (60%) 153.6 μM.
Plate preparation. […]

[4] = broth microdilution, 37° C., 2.5×10^5 CFU/mL
[5] = 5 mM aqueous HEPES buffer, pH 7.00, 37° C.
[6] = 50 mM aqueous CAPS buffer, pH 10.50, 37° C.
[7] = ATCC25923, broth microdilution, 37° C., 2.5×10^5 CFU/mL, read-out: MIC S. aureus

Description for physchem: As the dissociation constant of CEA in water is to the best of our knowledge not reported, we used the structural similarity between CEA and propionic acid to predict the pKa value of CEA as 4.9.42 We then projected the pKa value of a linear CEA-polymer as 5.6, and estimated the pKa value of a crosslinked microgel with 20 mol % of CEA as 10.1 following the method by Fisher and Kunin as described.43 In short, the apparent pKa values of crosslinked microgels were estimated from the pKa(m=1) value of a linear polymer of the monomeric acid as eq 2 pKa,app=pKa(m=1)(2−m) (eq 2) where m is the mol fraction of the monomeric acid. The dissociation constant of the linear polymer is estimated graphically by extrapolation.

Molecule: Benzalkonium chloride
- MIC S. aureus (S. aureus (ATCC 25923); [4]): 4.32 ± 0.01 µg/mL
- MIC E. coli (E. coli (BL21 DE3); [4]): 117 ± 1 µg/mL

Molecule: O=C[C@H](O)[C@@H](O)[C@@H](O)[C@H](O)CO [galactose]
- pKa, gal [1]: 2.70

Molecule: Cc1ccc(CNC2=NC(CO)C(O)C(O)C2O)cc1 (stereo not drawn) [galactonoamidine 1]
- stability against hydrolysis ([2]; 50 mM CAPS buffer, pH 10.50, 72° C.): instant hydrolysis
- stability against hydrolysis ([2]; buffer strength lowered to 5 mM, pH 10.50, 72° C.): slowed the hydrolysis
- stability against hydrolysis ([2]; pure deuterium oxide, 72° C., 3 h): stable

Molecule: C=CC(=O)OCCC(=O)O [CEA monomer, carboxyethyl acrylate]
- pKa (physchem): 4.9

Molecule: β-galactosidase: β-galactosidase (bovine liver)
- stabilization of enzyme-catalyzed hydrolysis relative to microgel ^Cu2LP1 ([3]; pH 7): 3.5×106 fold
- catalytic proficiency relative to low molecular weight complex Cu2bpdpo ([3]; substrate 6 / β-9, pH 10.50, CAPS, 37° C.): about 3250 fold
- Km [3, 5]: 110 ± 220 µM
- kcat [3, 5]: 4.6 ± 0.1 min⁻¹
- Km [3, 6]: 540 ± 60 µM
- kcat [3, 6]: 2.95 ± 0.09 10^−3 min^−1
- catalytic proficiency higher than that of amidine-templated microgel ^Cu2LP1 ([3]; β-9, alkaline solution, pH 10.50): about 57 fold

Molecule: O=C(N[C@H](CO)[C@H](O)c1ccc([N+](=O)[O-])cc1)C(Cl)Cl [Chloramphenicol]
- MIC (S. aureus (ATCC 25923); [7]): 6.11 ± 0.02 µg/mL (≈ 18.9 µM)
- MIC (E. coli (BL21 DE3); [4]): 1.29 ± 0.04 µg/mL (≈ 3.99 µM)

Molecule: lysozyme: Hen Egg-white lysozyme purchased from AMRESCO
- inhibition of cell growth of E. coli on Müller-Hinton agar plates (B21 DE3 E. coli cells): inhibition of cell growth to a much smaller extend

Molecule: CCCCCCCCCCCCOS(=O)(=O)[O-].[Na+] [SDS, sodium dodecyl sulfate]
- MIC (S. aureus (ATCC 25923); [7]): 122 ± 1 µg/mL
- MIC (E. coli (BL21 DE3); [4]): 325 ± 11 µg/mL

Molecule: CN[C@H](CC(C)C)C(=O)N[C@H]1C(=O)N[C@@H](CC(N)=O)C(=O)N[C@H]2C(=O)N[C@H]3C(=O)N[C@H](C(=O)N[C@H](C(=O)O)c4cc(O)cc(O)c4-c4cc3ccc4O)[C@H](O)c3ccc(c(Cl)c3)Oc3cc2cc(c3O[C@@H]2O[C@H](CO)[C@@H](O)[C@H](O)[C@H]2O[C@H]2C[C@](C)(N)[C@H](O)[C@H](C)O2)Oc2ccc(cc2Cl)[C@H]1O [Vancomycin]
- MIC (S. aureus (ATCC 25923); ATCC25923, read-out: MIC S. aureus): 2.35 ± 0.14 µg/mL (≈ 1.62 µM)
- MIC (E. coli (BL21 DE3)): 12.5 ± 0.2 µg/mL (≈ 8.63 µM)
